Measurements published in US20210102200A1, “SMALL MOLECULE TARGETED RECRUITMENT OF A NUCLEASE TO RNA” (The Scripps Research Institute, priority 2018, published 2021).
“Also recorded” adds a separate entry of the source.

Legend:
pri-miR-96's Drosha site = settings: parent compound, pri-miR-96 Drosha site; cited from earlier work
pri-miR-96 [1] = experiment: pri-miR-96 levels / cleavage in cells by RT-qPCR; format: cell-based
Method: (§1) Cell culture: All cells were maintained at 37° C. with 5% CO2. MDA-MB-231 (HTB-26, ATCC) cells were cultured in RPMI 1640 medium with L-glutamine & 25 mM HEPES (Corning) supplemented with 10% FBS (Sigma) and 1×Antibiotic-Antimycotic (Corning). A549 (CCL-185, ATCC), HeLa (CCL-2, ATCC), and MCF7 (HTB-22, ATCC) cells were cultured in DMEM medium with 4.5 g/L glucose (Corning), supplemented with 10% FBS (Sigma), 1×Glutagro (Corning), and 1×Antibiotic-Antimycotic (Corning). MCF10a (CRL-10317, ATCC) cells were cultured in DMEM/F12 50/50 with L-glutamine & 15 mM HEPES (Corning), supplemented with 10% FBS (Sigma), 20 ng/mL human epidermal growth factor (Pepro Tech Inc.), […] hydrocortisone (Pfaltz & Bauer), 100 ng/mL cholera toxin (Sigma-Alrich), 10 μg/mL insulin (Sigma-Aldrich), and 1×Antibiotic-Antimycotic (Corning). […]
(§2) RNA isolation and RT-qPCR: Total RNA was extracted from untreated and treated cells by using a Quick-RNA MiniPrep (Zymo Research) per the manufacturer's protocol. […] RNA expression levels were determined using the ΔΔCt method and normalized with U6 small nuclear RNA as a housekeeping gene. Upon treatment with chimeric compound 2, relative cleavage levels were calculated according to equation 2 (Eq. 2) in order to control for the effect of parent compound 1a, on pri-miR-96 expression: […]

mature miR-96 = experiment: Mature miR-96 levels in cells by RT-qPCR; format: cell-based; settings: MDA-MB-231 cells
Method: as §1, §2

pri-miR-96 [2] = experiment: In vitro cleavage of pri-miR-96 by RNase L (fluorescence-based and gel mapping); format: biochemical; settings: in vitro competition
Excerpt: Determination of RNA cleavage by fluorescence: A model RNase L substrate RNA1 labeled with a 5′ 6-Fluorescein and 3′ Iowa Black® FQ (5′-6FAM-UUAUCAAAU […] 3′ (SEQ ID NO: 1)—Iowa Black® FQ: RNA 1) was purchased from Integrated DNA Technologies, Inc. (IDT), which also HPLC purified the oligonucleotide. A model of pri-miR-96 RNA labeled with 5′ 6-Fluorescein and 3′ Quencher (IQ4, structure undisclosed) (5′-6FAM […] […] 3′ (SEQ ID NO: 2)—IQ4: RNA 2) was purchased from and HPLC purified by Chemgenes. Solutions of RNA 1 or RNA 2 were folded at 70° C. for 5 min and cooled to room temperature in RNase L Buffer without MgCl2, β-mercaptoethanol or ATP. After cooling, the RNA was supplemented with 10 mM MgCl2, fresh 7 mM β-mercaptoethanol, and 50 μM of ATP. […] Fluorescence intensity (Ex: 485 nm, Em: 528 nm) was measured on a BioTek FLx800 plate reader. Relative Fluorescence Enhancement was calculated by normalizing the fluorescent signal of treated RNA samples to the fluorescent signal of untreated RNA samples. Percentage RNA Cleavage was calculated by normalizing sample fluorescent signals relative to the maximum fluorescent signal, set as 100%. […] Normalized RNA Cleavage was calculated by normalizing sample fluorescent signals relative to the maximum fluorescent signal (compound with no tRNA), set as 1. […]

## Targaprimir-96 [Compound 1a]
pri-miR-96's Drosha site
  Kd: 0.02 µM
pri-miR-96 [1]; MDA-MB-231 cells, RT-qPCR
  pri-miR-96 levels: increased; also recorded: boosted
pri-miR-96 [1]; constant concentration of 2, increasing concentrations of 1a
  2-mediated pri-miR-96 cleavage upon co-treatment with 1a: decreased pri-miR-96 cleavage levels in a dose dependent fashion; also recorded: reduced
Mature miR-96
  mature miR-96 levels: reduced
pri-miR-96 [2]
  Cleavage at U12 by 2 upon addition of the parent compound: inhibited
